Measured values: ChEMBL document CHEMBL1177698, “Inhibition of protein kinase C-driven nuclear factor-kappaB activation: synthesis, structure-activity relationship, and pharmacological profiling of pathway specific benzimidazole probe molecules” (J Med Chem, 2010)
In brackets after ≈: the same amount, converted by molar mass. Activity calls are given as the source filed them. The rule behind the calls is not given here.

Legend:
[1] = Inhibition of NF-kappaB activation transfected in PMA-stimulated HEK293 cells after 16 hrs by luciferase reporter gene assay; format: cell-based; conditions: HEK293, 16 h
[2] = Metabolic stability in mouse liver microsomes assessed as compound remaining at 10 uM after 1 hr by LC/MS/MS analysis; format: ADME, Microsome; conditions: read-out: Stability
[3] = target: T1, Serine/threonine-protein kinase tousled-like 1 (Homo sapiens) (UniProt Q9UKI8); assay: Inhibition of TLK1 at 10 uM
T1 sequence (whole entry): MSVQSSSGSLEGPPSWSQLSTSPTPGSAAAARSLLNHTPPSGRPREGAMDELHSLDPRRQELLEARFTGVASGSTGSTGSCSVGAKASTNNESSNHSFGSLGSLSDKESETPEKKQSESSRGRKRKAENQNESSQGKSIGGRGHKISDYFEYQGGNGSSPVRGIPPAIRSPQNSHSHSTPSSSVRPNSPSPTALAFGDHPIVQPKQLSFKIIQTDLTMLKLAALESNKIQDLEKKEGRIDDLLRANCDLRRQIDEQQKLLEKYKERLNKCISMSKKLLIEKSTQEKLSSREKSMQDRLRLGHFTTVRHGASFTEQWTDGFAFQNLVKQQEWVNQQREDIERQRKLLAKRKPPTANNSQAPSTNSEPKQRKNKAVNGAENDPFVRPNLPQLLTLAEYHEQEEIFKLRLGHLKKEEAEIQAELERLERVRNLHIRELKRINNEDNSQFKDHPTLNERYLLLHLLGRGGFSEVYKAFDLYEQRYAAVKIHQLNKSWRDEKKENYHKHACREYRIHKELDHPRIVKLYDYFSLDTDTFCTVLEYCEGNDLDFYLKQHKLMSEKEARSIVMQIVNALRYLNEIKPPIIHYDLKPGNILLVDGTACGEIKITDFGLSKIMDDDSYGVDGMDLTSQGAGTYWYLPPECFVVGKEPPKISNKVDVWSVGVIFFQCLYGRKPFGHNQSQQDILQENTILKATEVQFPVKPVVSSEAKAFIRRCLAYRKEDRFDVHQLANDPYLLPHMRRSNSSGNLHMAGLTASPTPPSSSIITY

[4] = target: T2, Inhibitor of nuclear factor kappa-B kinase subunit beta (Homo sapiens) (UniProt O14920); assay: Inhibition of IKK-beta up to 8 uM
T2 sequence (whole entry): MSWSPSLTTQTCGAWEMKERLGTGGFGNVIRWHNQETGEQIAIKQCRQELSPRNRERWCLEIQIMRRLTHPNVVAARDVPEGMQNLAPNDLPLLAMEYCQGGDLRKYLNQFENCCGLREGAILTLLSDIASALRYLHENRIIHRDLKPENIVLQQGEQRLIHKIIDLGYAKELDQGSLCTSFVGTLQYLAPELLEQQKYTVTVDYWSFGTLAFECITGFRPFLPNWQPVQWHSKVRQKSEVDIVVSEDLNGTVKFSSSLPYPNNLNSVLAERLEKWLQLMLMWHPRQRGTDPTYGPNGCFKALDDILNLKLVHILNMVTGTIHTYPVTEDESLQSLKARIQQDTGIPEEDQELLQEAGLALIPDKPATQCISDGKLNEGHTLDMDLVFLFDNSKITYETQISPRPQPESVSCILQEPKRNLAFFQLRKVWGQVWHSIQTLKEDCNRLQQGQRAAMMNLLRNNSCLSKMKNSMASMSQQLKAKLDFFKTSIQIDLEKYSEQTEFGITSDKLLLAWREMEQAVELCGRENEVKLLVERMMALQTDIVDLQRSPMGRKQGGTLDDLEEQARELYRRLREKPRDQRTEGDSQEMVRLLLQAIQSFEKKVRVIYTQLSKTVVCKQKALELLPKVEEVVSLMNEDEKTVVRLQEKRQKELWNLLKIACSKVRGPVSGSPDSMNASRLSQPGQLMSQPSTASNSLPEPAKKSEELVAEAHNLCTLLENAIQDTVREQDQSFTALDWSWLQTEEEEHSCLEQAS

[5] = Drug level in mouse blood at 50 mg/kg, ip after 0.5 hrs by LC/MS analysis; format: ADME, organism-based; design: dose 50 mg/kg, route intraperitoneal; conditions: whole blood, read-out: Drug uptake
[6] = Metabolic stability in human liver microsomes assessed as compound remaining at 1 uM after 1 hr by LC/MS/MS analysis; format: ADME, Microsome; conditions: read-out: Stability
[7] = target: Protein kinase C beta type (Homo sapiens) (UniProt P05771); assay: Inhibition of PKCbeta up to 8 uM
[8] = Aqueous solubility at pH 6.2 after 18 hrs by UV kinetic solubility method; format: physicochemical; conditions: aqueous medium
[9] = Permeability at 50 uM at pH 7.4 by PAMPA; format: ADME; conditions: pH 7.4, 50 µM
[10] = target: Protein kinase C theta type (Homo sapiens) (UniProt Q04759); assay: Inhibition of PKCtheta up to 8 uM
[11] = Cytotoxicity against human HEK293 cells after 24 hrs by ATP-lite 1-step assay; format: cell-based; conditions: read-out: LD50
HEK293 = assay: Inhibition of NF-kappaB activation transfected in TNF-alpha-stimulated HEK293 cells after 16 hrs by luciferase reporter gene assay; format: cell-based
[12] = Drug level in mouse blood at 50 mg/kg, ip after 3 hrs by LC/MS analysis; format: ADME, organism-based; design: dose 50 mg/kg, route intraperitoneal; conditions: whole blood, read-out: Drug uptake
[13] = Aqueous solubility at pH 5 after 18 hrs by UV kinetic solubility method; format: physicochemical; conditions: aqueous medium
[14] = Drug level in mouse blood at 10 mg/kg, ip after 3 hrs by LC/MS analysis; format: ADME, organism-based; design: dose 10 mg/kg, route intraperitoneal; conditions: whole blood, read-out: Drug uptake
[15] = Drug level in mouse blood at 30 mg/kg, ip after 3 hrs by LC/MS analysis; format: ADME, organism-based; design: dose 30 mg/kg, route intraperitoneal; conditions: whole blood, read-out: Drug uptake
[16] = target: Tyrosine-protein kinase JAK2 (Homo sapiens) (UniProt O60674); assay: Inhibition of JAK2 at 10 uM
[17] = Drug level in mouse blood at 30 mg/kg, ip after 0.5 hrs by LC/MS analysis; format: ADME, organism-based; design: dose 30 mg/kg, route intraperitoneal; conditions: whole blood, read-out: Drug uptake
[18] = Aqueous solubility at pH 7.4 after 18 hrs by UV kinetic solubility method; format: physicochemical; conditions: aqueous medium
[19] = Drug level in mouse blood at 10 mg/kg, ip after 0.5 hrs by LC/MS analysis; format: ADME, organism-based; design: dose 10 mg/kg, route intraperitoneal; conditions: whole blood, read-out: Drug uptake
[20] = Permeability at 50 uM at pH 5 by PAMPA; format: ADME; conditions: pH 5, 50 µM
[21] = target: RAF proto-oncogene serine/threonine-protein kinase (Homo sapiens) (UniProt P04049); assay: Inhibition of raf kinase at 10 uM
[22] = Cytotoxicity against human Fa2N-4 cells after 24 hrs by ATP-lite 1-step assay; format: cell-based; conditions: read-out: LD50
[23] = Permeability at 50 uM at pH 6.2 by PAMPA; format: ADME; conditions: pH 6.2, 50 µM
[24] = Metabolic stability in mouse liver microsomes assessed as compound remaining at 1 uM after 1 hr by LC/MS/MS analysis; format: ADME, Microsome; conditions: read-out: Stability
[25] = Metabolic stability in human liver microsomes assessed as compound remaining at 10 uM after 1 hr by LC/MS/MS analysis; format: ADME, Microsome; conditions: read-out: Stability

Sequence of Protein kinase C theta type (Homo sapiens) (Q04759 whole entry, looked up): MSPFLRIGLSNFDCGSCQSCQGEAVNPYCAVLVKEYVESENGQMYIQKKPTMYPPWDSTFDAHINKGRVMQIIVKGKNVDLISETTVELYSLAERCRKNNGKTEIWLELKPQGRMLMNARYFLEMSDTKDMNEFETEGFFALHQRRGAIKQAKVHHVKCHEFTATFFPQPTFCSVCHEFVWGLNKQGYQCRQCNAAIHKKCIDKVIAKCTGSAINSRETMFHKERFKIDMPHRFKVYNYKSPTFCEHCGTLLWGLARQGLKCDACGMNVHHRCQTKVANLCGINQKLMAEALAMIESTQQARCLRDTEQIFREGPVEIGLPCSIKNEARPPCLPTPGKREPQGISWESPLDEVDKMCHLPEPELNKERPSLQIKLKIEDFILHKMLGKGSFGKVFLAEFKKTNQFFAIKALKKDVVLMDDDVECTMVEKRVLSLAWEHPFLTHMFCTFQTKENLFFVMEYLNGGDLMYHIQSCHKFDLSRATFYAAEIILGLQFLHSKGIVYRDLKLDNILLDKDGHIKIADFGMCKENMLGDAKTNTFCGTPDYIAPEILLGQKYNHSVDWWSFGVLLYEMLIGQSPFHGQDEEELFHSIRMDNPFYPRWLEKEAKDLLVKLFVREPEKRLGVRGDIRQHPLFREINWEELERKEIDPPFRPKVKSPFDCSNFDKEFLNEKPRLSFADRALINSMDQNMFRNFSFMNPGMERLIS
Sequence of Tyrosine-protein kinase JAK2 (Homo sapiens) (O60674 whole entry): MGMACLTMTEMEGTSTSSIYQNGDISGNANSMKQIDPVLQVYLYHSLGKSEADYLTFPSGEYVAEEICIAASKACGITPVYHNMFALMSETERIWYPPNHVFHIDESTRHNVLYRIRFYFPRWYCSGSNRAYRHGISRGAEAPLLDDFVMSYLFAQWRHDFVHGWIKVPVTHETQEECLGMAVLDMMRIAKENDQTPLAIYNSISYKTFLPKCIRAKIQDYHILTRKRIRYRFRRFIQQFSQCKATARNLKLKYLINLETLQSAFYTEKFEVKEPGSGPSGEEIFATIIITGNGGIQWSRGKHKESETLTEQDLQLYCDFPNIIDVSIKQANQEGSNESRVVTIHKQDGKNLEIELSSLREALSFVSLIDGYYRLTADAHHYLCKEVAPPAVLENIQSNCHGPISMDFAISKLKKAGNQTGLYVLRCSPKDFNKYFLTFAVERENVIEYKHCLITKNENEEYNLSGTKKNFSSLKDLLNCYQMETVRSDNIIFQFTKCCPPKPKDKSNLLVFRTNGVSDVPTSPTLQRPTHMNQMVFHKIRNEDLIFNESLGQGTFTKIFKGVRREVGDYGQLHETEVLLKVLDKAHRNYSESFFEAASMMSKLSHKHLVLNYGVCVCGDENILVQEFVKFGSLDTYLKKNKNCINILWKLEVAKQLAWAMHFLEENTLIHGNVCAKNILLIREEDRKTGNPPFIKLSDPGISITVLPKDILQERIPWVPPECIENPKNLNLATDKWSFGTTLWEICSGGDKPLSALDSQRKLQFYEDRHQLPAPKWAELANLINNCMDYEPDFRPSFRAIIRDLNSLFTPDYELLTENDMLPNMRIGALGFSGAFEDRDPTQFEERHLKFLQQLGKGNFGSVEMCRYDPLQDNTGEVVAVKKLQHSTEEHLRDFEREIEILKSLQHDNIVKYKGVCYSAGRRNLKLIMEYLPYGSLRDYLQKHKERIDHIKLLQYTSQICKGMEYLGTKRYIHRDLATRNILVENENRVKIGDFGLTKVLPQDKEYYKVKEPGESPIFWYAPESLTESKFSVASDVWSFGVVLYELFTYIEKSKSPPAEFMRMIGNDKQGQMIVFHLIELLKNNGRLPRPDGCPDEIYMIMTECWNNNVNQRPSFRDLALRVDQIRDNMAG
Sequence of RAF proto-oncogene serine/threonine-protein kinase (Homo sapiens) (P04049 whole entry): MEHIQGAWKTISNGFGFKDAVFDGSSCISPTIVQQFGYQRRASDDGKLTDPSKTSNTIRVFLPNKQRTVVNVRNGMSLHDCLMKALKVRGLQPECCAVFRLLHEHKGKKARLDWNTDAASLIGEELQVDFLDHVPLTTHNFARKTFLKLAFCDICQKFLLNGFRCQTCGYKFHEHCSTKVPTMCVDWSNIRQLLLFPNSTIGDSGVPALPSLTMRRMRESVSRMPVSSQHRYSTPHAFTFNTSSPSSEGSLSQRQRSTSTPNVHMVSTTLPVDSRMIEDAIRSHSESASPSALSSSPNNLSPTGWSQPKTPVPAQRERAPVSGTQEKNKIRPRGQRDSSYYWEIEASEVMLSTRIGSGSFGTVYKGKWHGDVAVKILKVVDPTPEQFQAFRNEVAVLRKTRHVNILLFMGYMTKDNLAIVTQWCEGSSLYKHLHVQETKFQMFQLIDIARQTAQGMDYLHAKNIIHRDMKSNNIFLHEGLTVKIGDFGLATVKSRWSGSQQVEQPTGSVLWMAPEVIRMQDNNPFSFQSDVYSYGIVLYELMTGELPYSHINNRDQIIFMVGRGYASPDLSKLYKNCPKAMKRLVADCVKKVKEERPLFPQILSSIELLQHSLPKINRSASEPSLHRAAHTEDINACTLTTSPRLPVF
Sequence of Protein kinase C beta type (Homo sapiens) (P05771 2-671 limits assumed): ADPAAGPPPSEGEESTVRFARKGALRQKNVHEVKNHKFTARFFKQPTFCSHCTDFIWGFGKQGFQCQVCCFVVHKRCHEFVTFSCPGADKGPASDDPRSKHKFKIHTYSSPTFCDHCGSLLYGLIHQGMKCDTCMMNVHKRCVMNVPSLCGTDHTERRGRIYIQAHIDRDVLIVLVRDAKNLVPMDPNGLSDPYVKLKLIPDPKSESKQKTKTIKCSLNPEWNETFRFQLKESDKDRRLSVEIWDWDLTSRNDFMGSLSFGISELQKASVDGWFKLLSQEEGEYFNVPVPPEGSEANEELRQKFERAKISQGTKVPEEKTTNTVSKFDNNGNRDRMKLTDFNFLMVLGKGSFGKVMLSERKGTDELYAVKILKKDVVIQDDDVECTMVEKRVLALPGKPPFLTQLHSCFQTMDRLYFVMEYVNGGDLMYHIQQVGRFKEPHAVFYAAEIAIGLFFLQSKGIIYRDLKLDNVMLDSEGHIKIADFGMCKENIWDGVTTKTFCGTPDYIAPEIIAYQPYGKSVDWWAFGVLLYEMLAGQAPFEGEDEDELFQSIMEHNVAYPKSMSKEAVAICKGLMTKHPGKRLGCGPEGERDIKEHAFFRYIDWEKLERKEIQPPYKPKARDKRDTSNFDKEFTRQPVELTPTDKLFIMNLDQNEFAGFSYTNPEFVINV

CC(C)(C)c1cc(C(=O)Cn2c(NCCCO)nc3ccc(-c4ccccc4)cc32)cc(C(C)(C)C)c1O
IC50 [1]: 0.9 µM

Cc1cc2nc(NCCCO)n(CC(=O)c3cc(C(C)(C)C)cc(C(C)(C)C)c3)c2cc1C
IC50 [1]: 0.1 µM

Cc1cc2nc(NCCCO)n(CC(=O)c3cccc(C(C)(C)C)c3)c2cc1C
IC50 [1]: 11 µM

CC(C)(C)c1cc(C(=O)Cn2c(NCCCO)nc3ccc(Br)cc32)cc(C(C)(C)C)c1O
IC50 [1]: 6 µM

CC(C)(C)c1cc(C(=O)Cn2c(NCCCO)nc3cc(Br)ccc32)cc(C(C)(C)C)c1O
IC50 [1]: 3 µM

Cc1cc2nc(N3CCC(O)CC3)n(CC(=O)c3cc(C(C)(C)C)c(O)c(C(C)(C)C)c3)c2cc1C
IC50 [1]: 13 µM

CC(C)(C)c1cc(C(=O)Cn2c(NCCCO)nc3cc(C(=O)c4ccccc4)ccc32)cc(C(C)(C)C)c1O
IC50 [1]: 1.8 µM

CCCCNc1nc2cc(C)c(C)cc2n1CC(=O)c1cc(C(C)(C)C)c(O)c(C(C)(C)C)c1
IC50 [1]: 0.8 µM

COCCCNc1nc2cc(C)c(C)cc2n1CC(=O)c1cc(C(C)(C)C)c(O)c(C(C)(C)C)c1
IC50 [1]: 0.3 µM

Cc1cc2nc(NCCCO)n(CC(=O)c3cccc(OC(C)(C)C)c3)c2cc1C
IC50 [1]: 16 µM

CC(C)(C)c1cc(C(=O)Cn2c(NCCCO)nc3ccc([N+](=O)[O-])cc32)cc(C(C)(C)C)c1O
IC50 [1]: > 8 µM

CC(C)(C)c1cc(C(=O)Cn2c(NCCCO)nc3cc([N+](=O)[O-])ccc32)cc(C(C)(C)C)c1O
IC50 [1]: 2 µM

Cc1cc2nc(NCCCO)n(CC(=O)c3cc(C(C)(C)C)c(O)c(C(C)(C)C)c3)c2cc1C
remaining at 1 h, 10 µM [2]: 19% | inhibition [3]: 70% | inhibition [4]: inactive | concentration at 0.5 h [5]: 5.93 µM | remaining at 1 h, 1 µM [6]: 26% | inhibition [7]: inactive | solubility kinetic at 18 h [8]: 0.5 µg/mL (≈ 1.07 µM) | permeability [9]: 4410 nm/s | inhibition [10]: inactive | CC50 at 24 h [11]: 40 µM | inhibition (HEK293): inactive | concentration at 3 h [12]: 6.96 µM | solubility kinetic at 18 h [13]: 42 µg/mL (≈ 90.2 µM) | concentration at 3 h [14]: 0.5 µM | concentration at 3 h [15]: 3.64 µM | inhibition [16]: 53% | concentration at 0.5 h [17]: 8.28 µM | solubility kinetic at 18 h [18]: 0.7 µg/mL (≈ 1.5 µM) | concentration at 0.5 h [19]: 1.81 µM | permeability [20]: 2990 nm/s | inhibition [21]: 57% | CC50 at 24 h [22]: 47 µM | permeability [23]: 7100 nm/s | remaining at 1 h, 1 µM [24]: 0.5% | remaining at 1 h, 10 µM [25]: 55%

CNc1nc2cc(C)c(C)cc2n1CC(=O)c1cc(C(C)(C)C)c(O)c(C(C)(C)C)c1
IC50 [1]: 0.3 µM

CC(C)(C)c1cc(C(=O)Cn2c(NCCCO)nc3cc(-c4ccccc4)ccc32)cc(C(C)(C)C)c1O
IC50 [1]: 0.6 µM

CC(C)(C)c1cc(C(=O)Cn2c(NCCCO)nc3ccc(N)cc32)cc(C(C)(C)C)c1O
IC50 [1]: 0.4 µM

CC(C)(C)c1cc(C(=O)Cn2c(NCCCO)nc3cc(N)ccc32)cc(C(C)(C)C)c1O
IC50 [1]: 0.8 µM

Cc1cc2nc(NC3CCC(O)CC3)n(CC(=O)c3cc(C(C)(C)C)c(O)c(C(C)(C)C)c3)c2cc1C (configuration not stated)
IC50 [1]: 0.1 µM
